US20120220560A1, “STEROID TETROL SOLID STATE FORMS” (priority 2010, published 2012)
pIC50: −log10 of the molar value.

Columns and labels:
[1] = system: IL-6 from MG-63 cells; assay: Inhibition of IL-6 from MG-63 cells; type: cell-based; details: Homo sapiens, pilot studies
From the text: (§1) The capacity of 5-androstene-3β,7β,17β-triol, androst-5-ene-3β,7β,16α,17β-tetrol (3β-tetrol) and other compounds to reverse adverse effects of glucocorticoids in bone growth was shown in the human MG-63 osteosarcoma cell line. MG-63 cells are osteoblasts, which are cells that mediate bone growth. This cell line has been used extensively to study bone biology and to characterize the biological activity of compounds for treatment of bone loss conditions (e.g., B. D. Boyan et al., J. Biol. Chem., 264(20):11879-11886 (1989); L. C. Hofbauer et al., Endocrinology, 140(10):4382-4389 (1999)). Adverse toxicities associated with elevated glucocorticoid levels include a […] in the production of IL-6 and IL-8 by osteoblasts, including the MG-63 cell line, and an increase in the expression of the 11β-hydroxysteroid dehydrogenase type 1 enzyme (11β-HSD). Increased 11β-hydroxysteroid dehydrogenase type 1 enzyme results in increased levels of endogenous glucocorticoid activity by converting endogenous cortisone to the active cortisol, which inhibits bone growth. The 11β-HSD enzyme is expressed in liver, adipose tissue, brain and bone tissues. Cortisol generated by 11β-HSD-1 contributes to osteoporosis, insulin resistance, type 2 diabetes, dyslipidemia, obesity, central nervous system disorders such as stroke, neuron death, depression and Parkinson Disease. […]

[2] = system: osteoprotegerin; assay: Osteoprotegerin levels in dexamethasone-treated mice; type: in vivo; details: mice treated with vehicle and dexamethasone at 10 μg/day, daily for 23 days (positive control group)
Procedure: Osteoprotegerin levels in mice that are treated with vehicle and dexamethasone at 10 μg/day (positive control group) typically show 3.3 pMol/L osteoprotegerin, […]

[3] = system: 8 week old db/db diabetic mice; assay: Hyperinsulinemic-euglycemic clamp, glucose lowering in db/db diabetic mice; type: in vivo; details: for glucose infusion rate compared to the vehicle control: db/db mice, po bid 13 days, qd day 14, clamp on day 14, insulin 10 mU/kg/min; for glucose uptake in white vastus muscle / augmenting muscle glucose uptake in the gastrocnemius muscle: 14C-2-deoxyglucose during clamp; for glucose uptake in white vastus muscle: non oxidative muscle group; for augmenting muscle glucose uptake in the gastrocnemius muscle: p<0.05
Procedure: Glucose lowering in 8 week old db/db diabetic mice: The hyperinsulinemic-euglycemic clamp protocol was conducted to measure insulin sensitivity in vivo. In this procedure, insulin was administered to raise the insulin concentration while glucose was infused to maintain euglycemia or a fixed, normal blood glucose level (about 180 mg/dL). […] The objective of this protocol was to investigate characterize the capacity of 17α-ethynylandrost-5-ene-3β,7β,17β-triol and androst-5-ene-3β,7β,16α,17β-tetrol to ameliorate systemic insulin resistance and improve whole body glucose disposal in the hyperinsulinemic-euglycemic clamp model. The degree of skeletal muscle and hepatic insulin sensitivity and tissue specific glucose uptake were also assessed. The animals were dosed daily by oral gavage for 14 days. On Day 10 of treatment catheters were implanted in the carotid artery and jugular vein. On the day of the clamp (day 14) the compound was administered at 7:30 am.
Body weight and glucose concentration were assessed on day 0, 7 and day 14 of treatment. On day 14 a euglycemic-hyperinsulinemic clamp was performed. Food was removed at 7:30 am and at 10:30 a primed continuous infusion of [3-^3H]-glucose (0.05 μCi/min) was administered. A baseline blood sample was taken at 12:50 (−10 min) and at 1:00 (0 min) a euglycemic-hyperinsulinemic clamp was initiated by administering 10 mU/kg/min of insulin. Glucose was infused at a variable rate to clamp the glucose concentration at about 180 mg/dl. A bolus of [^14C]-2deoxyglucose was given at the end of the study to assess tissue specific glucose uptake. Plasma ^14C 2-deoxyglucose was assessed at 122, 125, 130, 135, 145 min. The animals were then anesthetized with an intravenous infusion of sodium pentobarbital and selected tissues were removed, immediately frozen in liquid nitrogen and stored at −70° C. until analysis.
Analysis was conducted as follows. Plasma samples were deproteinized with Ba(OH)2 (0.3 N) and ZnSO4 (0.3 N), dried and radioactivity was assessed on scintillation counter (Packard TRICARB 2900 TR, Meriden, Conn.). Frozen tissue samples were homogenized in 0.5% perchloric acid, centrifuged and neutralized. One supernatant was directly counted to determine radioactivity from both [14C] DG and DGP. A second aliquot was treated with Ba(OH)2 and ZnSO4 to remove ^14C DGP and any tracer incorporated into glycogen and then counted to determine radioactivity from free [^14C]DG(2). [^14C]DGP was calculated as the difference between the two aliquots. The accumulation of [^14C]DGP was normalized to tissue weight and tracer bolus. Rg, an index of tissue specific glucose uptake was calculated as previously described (E. W. Kraegen et al., Am. J. Physiol., 248: E353-E362 (1985)). Whole body glucose turnover was calculated as the ratio of the ^3H glucose infusion rate (dpm/kg/min) and arterial plasma glucose specific activity (dpm/mg). Endogenous glucose production was calculated as the difference between the whole body glucose turnover and the exogenous glucose infusion rate (R. N. Bergman et al., Endocr. Rev., 6:45-86, (1985)).

[4] = molecular target: estrogen receptor-α (Homo sapiens, UniProt P03372); assay: Interaction with estrogen receptor-α; type: binding
Sequence of estrogen receptor-α (P03372 whole entry): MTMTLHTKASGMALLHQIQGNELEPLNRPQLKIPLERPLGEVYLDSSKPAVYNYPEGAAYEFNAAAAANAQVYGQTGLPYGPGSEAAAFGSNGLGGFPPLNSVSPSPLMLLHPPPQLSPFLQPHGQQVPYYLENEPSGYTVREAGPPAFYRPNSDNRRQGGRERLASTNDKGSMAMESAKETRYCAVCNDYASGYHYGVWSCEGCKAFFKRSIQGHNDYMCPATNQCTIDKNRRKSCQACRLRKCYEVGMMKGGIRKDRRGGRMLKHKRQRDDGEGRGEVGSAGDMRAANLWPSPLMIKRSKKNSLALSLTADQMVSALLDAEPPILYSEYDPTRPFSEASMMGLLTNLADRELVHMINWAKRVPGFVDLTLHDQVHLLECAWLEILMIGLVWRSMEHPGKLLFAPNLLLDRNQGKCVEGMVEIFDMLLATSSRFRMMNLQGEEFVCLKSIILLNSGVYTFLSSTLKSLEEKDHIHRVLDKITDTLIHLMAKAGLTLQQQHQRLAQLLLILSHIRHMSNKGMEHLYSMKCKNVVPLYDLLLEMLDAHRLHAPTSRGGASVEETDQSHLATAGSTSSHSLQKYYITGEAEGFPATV

[5] = molecular target: estrogen receptor-β (Homo sapiens, UniProt Q92731); assay: Interaction with estrogen receptor-β; type: binding
Sequence of estrogen receptor-β (Q92731 whole entry, species assumed): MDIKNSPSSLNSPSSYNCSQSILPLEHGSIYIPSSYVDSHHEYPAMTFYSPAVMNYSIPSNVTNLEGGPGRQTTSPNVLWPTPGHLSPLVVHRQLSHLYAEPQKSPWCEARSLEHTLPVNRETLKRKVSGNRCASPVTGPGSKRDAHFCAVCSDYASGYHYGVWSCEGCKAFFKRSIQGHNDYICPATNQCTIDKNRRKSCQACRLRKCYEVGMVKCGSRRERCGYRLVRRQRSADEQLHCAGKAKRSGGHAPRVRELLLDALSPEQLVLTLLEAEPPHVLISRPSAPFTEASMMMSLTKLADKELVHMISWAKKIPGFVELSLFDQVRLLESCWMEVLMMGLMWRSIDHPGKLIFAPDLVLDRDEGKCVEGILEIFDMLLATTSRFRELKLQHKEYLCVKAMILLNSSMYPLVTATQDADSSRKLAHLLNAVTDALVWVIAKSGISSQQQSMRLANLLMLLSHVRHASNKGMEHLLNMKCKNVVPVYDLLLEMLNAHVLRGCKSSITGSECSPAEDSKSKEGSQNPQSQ

[6] = molecular target: T1, androgen receptor (Homo sapiens, UniProt P10275); assay: Interaction with androgen receptor; type: binding
T1 sequence (P10275 1-920): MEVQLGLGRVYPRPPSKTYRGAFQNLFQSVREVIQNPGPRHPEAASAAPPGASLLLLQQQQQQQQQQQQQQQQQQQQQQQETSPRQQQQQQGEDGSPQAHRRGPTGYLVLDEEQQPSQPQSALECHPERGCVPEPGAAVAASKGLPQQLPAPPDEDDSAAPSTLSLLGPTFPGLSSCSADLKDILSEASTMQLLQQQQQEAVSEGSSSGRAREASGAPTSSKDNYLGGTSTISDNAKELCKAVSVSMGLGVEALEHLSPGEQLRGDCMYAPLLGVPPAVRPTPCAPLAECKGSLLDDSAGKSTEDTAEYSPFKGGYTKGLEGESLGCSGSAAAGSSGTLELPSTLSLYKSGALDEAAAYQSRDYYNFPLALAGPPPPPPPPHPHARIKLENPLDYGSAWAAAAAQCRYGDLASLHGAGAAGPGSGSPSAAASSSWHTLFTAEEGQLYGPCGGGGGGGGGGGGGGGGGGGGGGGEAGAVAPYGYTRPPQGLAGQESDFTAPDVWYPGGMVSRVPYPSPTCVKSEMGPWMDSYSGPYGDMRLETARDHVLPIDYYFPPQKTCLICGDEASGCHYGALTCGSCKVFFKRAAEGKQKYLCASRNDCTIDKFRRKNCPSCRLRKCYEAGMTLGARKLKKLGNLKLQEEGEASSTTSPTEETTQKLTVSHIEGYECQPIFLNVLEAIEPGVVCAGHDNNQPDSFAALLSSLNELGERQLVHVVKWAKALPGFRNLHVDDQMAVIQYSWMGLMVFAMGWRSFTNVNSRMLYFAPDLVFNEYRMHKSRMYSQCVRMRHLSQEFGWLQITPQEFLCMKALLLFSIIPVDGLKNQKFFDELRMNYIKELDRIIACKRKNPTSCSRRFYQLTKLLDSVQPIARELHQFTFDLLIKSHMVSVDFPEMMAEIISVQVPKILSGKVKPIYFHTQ

[7] = system: male Wistar rats, DNBS challenge; assay: DNBS-induced distal colitis, animal model for inflammatory bowel disease; type: in vivo; details: sc once a day for 6 days, 0.2 or 2.0 mg/animal/day, 25-30% decrease considered significant
Procedure: The capacity of androst-5-ene-3β,7β,16α,17β-tetrol (3β-tetrol) to limit or inhibit inflammation or symptoms of inflammation is shown using an animal model for inflammatory bowel disease using the following protocol.
Groups of 3 male Wistar rats (180±20 grams) fasted for 24 hours before 2,4-dinitrobenzene sulfonic acid (DNBS) or saline challenge are used. Distal colitis is induced by intra-colonic instillation of 0.5 mL of an ethanolic solution of DNBS (30 mg in 0.5 mL of a 30% ethanol in saline solution) after which 2 mL of air was injected through the cannula to ensure that the solution remained in the colon. The volume used was 0.1 mL per injection of 2 and 20 mg/mL of compound such as androst-5-ene-3β,7β,17β-triol or 3β-tetrol in a liquid formulation, which was administered by subcutaneous injection once a day for 6 days (0.2 mg/animal/day or 2.0 mg/animal/day). The formulation contains […] of compound. Concentrations of 2 mg/mL and 20 mg/mL are obtained by […] with vehicle that lacked compound.
The first dose is given 30 minutes after DNBS challenge. […] The presence of diarrhea is recorded daily by examining the anal area. […] Before removal of the colon, signs of adhesion between the colon and other organs are recorded. […]

[8] = system: MG-63 cells; assay: Reversal of adverse effects of dexamethasone in MG-63 osteoblasts (incl. osteoprotegerin synthesis); type: cell-based, human
From the text: as §1

Compound | glucose infusion rate compared to the vehicle control [3] | glucose uptake in white vastus muscle [3] | augmenting muscle glucose uptake in the gastrocnemius muscle [3] | decrease in net colon-to-body weight ratio [7] | further results
C[C@@H]1C[C@H]2[C@@H]3CCC4=CC(=O)C=C[C@]4(C)[C@@]3(F)[C@@H](O)C[C@]2(C)[C@@]1(O)C(=O)CO [dexamethasone] |  |  |  |  | pIC50 [1]: 8.00; osteoprotegerin level [2]: 3.3 pmol/L
C#C[C@]1(O)CC[C@H]2[C@@H]3[C@@H](O)C=C4C[C@@H](O)CC[C@]4(C)[C@H]3CC[C@@]21C [17α-ethynylandrost-5-ene-3β,7β,17β-triol, reference compound] | increased |  |  |  | 
CN(CCOc1ccc(CC2SC(=O)NC2=O)cc1)c1ccccn1.O=C(O)/C=C\C(=O)O (stereo not drawn) [rosiglitazone, rosiglitazone maleate, reference compound] |  | differences were not detected except between androst-5-ene-3β,7β,16α,17β-tetrol and rosiglitazone | more effective |  | 
C[C@]12CC[C@H]3[C@@H]([C@@H](O)C=C4C[C@@H](O)CC[C@@]43C)[C@@H]1C[C@@H](O)[C@@H]2O [Form 3β-tetrol, androst-5-ene-3β,7β,16α,17β-tetrol] | increased | differences were not detected except between androst-5-ene-3β,7β,16α,17β-tetrol and rosiglitazone | more effective | 25-35% | interaction with estrogen receptor-α [4]: does not interact; interaction with estrogen receptor-β [5]: does not interact; interaction with androgen receptor [6]: does not interact; concentration giving normal osteoprotegerin levels ([8]; MG-63 cells, 30 nM dexamethasone): 0.1 µM; reversal of the decrease in osteoprotegerin synthesis by MG-63 cells ([8]; in the presence of 30 nM dexamethasone): completely or partially reversed
C[C@]12CC[C@H]3[C@@H]([C@@H](O)C=C4C[C@@H](O)CC[C@@]43C)[C@@H]1CC[C@@H]2O [androst-5-ene-3β,7β,17β-triol, reference compound] |  |  |  | 15-20% | 
